Source: the CheMixHub viscosity set

Experiment: xn = mol fraction of the nth substance listed

Oc1ccccc1 + CCCCNCCCC
298.16 K, 101 kPa
Conditions | viscosity [mPa·s]
x1 = 0.5012 | 5.109
x1 = 0.6086 | 13.4
x1 = 0.6558 | 20.06
x1 = 0.6934 | 34.09
x1 = 0.7223 | 46.47
x1 = 0.753 | 64.82
x1 = 0.7713 | 74.82
x1 = 0.7925 | 84.1
x1 = 0.8147 | 89.23
x1 = 0.8446 | 82.1
x1 = 0.875 | 62.86
x1 = 0.8948 | 49.73

COC(=O)OC + CCCCO
Conditions | viscosity [mPa·s]
293.15 K, 101 kPa, x1 = 0.05212 | 2.427
293.15 K, 101 kPa, x1 = 0.09994 | 2.071
293.15 K, 101 kPa, x1 = 0.191 | 1.611
293.15 K, 101 kPa, x1 = 0.2904 | 1.291
293.15 K, 101 kPa, x1 = 0.4109 | 1.029
293.15 K, 101 kPa, x1 = 0.4555 | 0.957
293.15 K, 101 kPa, x1 = 0.6133 | 0.775
293.15 K, 101 kPa, x1 = 0.7008 | 0.71
293.15 K, 101 kPa, x1 = 0.8063 | 0.656
293.15 K, 101 kPa, x1 = 0.907 | 0.63
293.15 K, 101 kPa, x1 = 0.9512 | 0.636
293.15 K, 101.3 kPa, x1 = 0.0518 | 2.461
293.15 K, 101.3 kPa, x1 = 0.0975 | 2.119
293.15 K, 101.3 kPa, x1 = 0.1961 | 1.586
293.15 K, 101.3 kPa, x1 = 0.3064 | 1.218
293.15 K, 101.3 kPa, x1 = 0.4108 | 1.023
293.15 K, 101.3 kPa, x1 = 0.4769 | 0.929
293.15 K, 101.3 kPa, x1 = 0.6101 | 0.794
293.15 K, 101.3 kPa, x1 = 0.7043 | 0.719
293.15 K, 101.3 kPa, x1 = 0.8043 | 0.644
293.15 K, 101.3 kPa, x1 = 0.9052 | 0.607
293.15 K, 101.3 kPa, x1 = 0.9508 | 0.605
298.15 K, 101.3 kPa, x1 = 0.0527 | 2.192
298.15 K, 101.3 kPa, x1 = 0.1009 | 1.877
298.15 K, 101.3 kPa, x1 = 0.2002 | 1.411
298.15 K, 101.3 kPa, x1 = 0.2986 | 1.127
298.15 K, 101.3 kPa, x1 = 0.3974 | 0.952
298.15 K, 101.3 kPa, x1 = 0.5039 | 0.831
298.15 K, 101.3 kPa, x1 = 0.6008 | 0.748
298.15 K, 101.3 kPa, x1 = 0.7028 | 0.673
298.15 K, 101.3 kPa, x1 = 0.8011 | 0.611
298.15 K, 101.3 kPa, x1 = 0.8965 | 0.572
298.15 K, 101.3 kPa, x1 = 0.9503 | 0.569
303.15 K, 101 kPa, x1 = 0.0494 | 1.938
303.15 K, 101 kPa, x1 = 0.1058 | 1.648
303.15 K, 101 kPa, x1 = 0.2154 | 1.256
303.15 K, 101 kPa, x1 = 0.2915 | 1.077
303.15 K, 101 kPa, x1 = 0.4086 | 0.882
303.15 K, 101 kPa, x1 = 0.5007 | 0.769
303.15 K, 101 kPa, x1 = 0.5847 | 0.697
303.15 K, 101 kPa, x1 = 0.7003 | 0.622
303.15 K, 101 kPa, x1 = 0.798 | 0.581
303.15 K, 101 kPa, x1 = 0.9065 | 0.553
303.15 K, 101 kPa, x1 = 0.9587 | 0.551
303.15 K, 101.3 kPa, x1 = 0.0249 | 2.078
303.15 K, 101.3 kPa, x1 = 0.096 | 1.666
303.15 K, 101.3 kPa, x1 = 0.1911 | 1.304
303.15 K, 101.3 kPa, x1 = 0.2998 | 1.046
303.15 K, 101.3 kPa, x1 = 0.3877 | 0.903
303.15 K, 101.3 kPa, x1 = 0.4799 | 0.787
303.15 K, 101.3 kPa, x1 = 0.5865 | 0.681
303.15 K, 101.3 kPa, x1 = 0.6907 | 0.608
303.15 K, 101.3 kPa, x1 = 0.7931 | 0.564
303.15 K, 101.3 kPa, x1 = 0.8925 | 0.547
303.15 K, 101.3 kPa, x1 = 0.9464 | 0.542
313.15 K, 101 kPa, x1 = 0.04725 | 1.542
313.15 K, 101 kPa, x1 = 0.1216 | 1.252
313.15 K, 101 kPa, x1 = 0.2016 | 1.027
313.15 K, 101 kPa, x1 = 0.2876 | 0.857
313.15 K, 101 kPa, x1 = 0.3956 | 0.712
313.15 K, 101 kPa, x1 = 0.414 | 0.693
313.15 K, 101 kPa, x1 = 0.6043 | 0.552
313.15 K, 101 kPa, x1 = 0.6975 | 0.511
313.15 K, 101 kPa, x1 = 0.8019 | 0.484
313.15 K, 101 kPa, x1 = 0.9062 | 0.477
313.15 K, 101 kPa, x1 = 0.9368 | 0.479
313.15 K, 101.3 kPa, x1 = 0.0499 | 1.536
313.15 K, 101.3 kPa, x1 = 0.0998 | 1.351
313.15 K, 101.3 kPa, x1 = 0.2234 | 1.018
313.15 K, 101.3 kPa, x1 = 0.3 | 0.88
313.15 K, 101.3 kPa, x1 = 0.3991 | 0.752
313.15 K, 101.3 kPa, x1 = 0.5054 | 0.662
313.15 K, 101.3 kPa, x1 = 0.603 | 0.598
313.15 K, 101.3 kPa, x1 = 0.6904 | 0.557
313.15 K, 101.3 kPa, x1 = 0.8009 | 0.52
313.15 K, 101.3 kPa, x1 = 0.9014 | 0.497
313.15 K, 101.3 kPa, x1 = 0.9471 | 0.494

COCCOCCOC + CCCCO
viscosity [mPa·s], 101 kPa
Conditions | x1 = 0.1051 | x1 = 0.2018 | x1 = 0.3019 | x1 = 0.4029 | x1 = 0.5049 | x1 = 0.6017 | x1 = 0.7049 | x1 = 0.7983 | x1 = 0.9023
298.15 K | 1.866 | 1.542 | 1.304 | 1.178 | 1.103 | 1.048 | 1.019 | 0.998 | 0.989
308.15 K | 1.48 | 1.252 | 1.074 | 0.983 | 0.924 | 0.883 | 0.863 | 0.849 | 0.842
318.15 K | 1.186 | 1.028 | 0.906 | 0.827 | 0.782 | 0.762 | 0.74 | 0.73 | 0.723

Cc1ccc(S(=O)O[C@@H]2C[C@H](C)CC[C@H]2C(C)C)cc1 (some centres not stated) + CCCCO
298 K, 101.3 kPa
Conditions | viscosity [mPa·s]
x1 = 0.00285 | 2.53
x1 = 0.00515 | 2.538
x1 = 0.007672 | 2.595
x1 = 0.01005 | 2.623
x1 = 0.01302 | 2.653
x1 = 0.01567 | 2.683

COCCOCCOC + CCCCOC(C)=O
viscosity [mPa·s], 101.33 kPa
Conditions | x1 = 0.0863 | x1 = 0.1754 | x1 = 0.2733 | x1 = 0.3672 | x1 = 0.4639 | x1 = 0.5609 | x1 = 0.6688 | x1 = 0.8022 | x1 = 0.8835
298.15 K | 0.706 | 0.734 | 0.764 | 0.791 | 0.822 | 0.852 | 0.884 | 0.924 | 0.948
303.15 K | 0.659 | 0.684 | 0.712 | 0.736 | 0.764 | 0.791 | 0.82 | 0.856 | 0.878
308.15 K | 0.616 | 0.639 | 0.664 | 0.686 | 0.714 | 0.737 | 0.768 | 0.796 | 0.816
313.15 K | 0.578 | 0.599 | 0.622 | 0.641 | 0.665 | 0.69 | 0.712 | 0.742 | 0.759
318.15 K | 0.542 | 0.562 | 0.583 | 0.601 | 0.622 | 0.642 | 0.665 | 0.692 | 0.709
